The results in this text go back to US6699869B1, “β-sheet mimetics and use thereof as inhibitors of biologically active peptides or proteins” (Myriad Genetics Inc., priority 1995, dated 2004).

The target of assay [1] is T1, bovine thrombin (Bos taurus, UniProt P00735).
T1 construct: bovine thrombin (from Sigma); purchased Sigma
Kind of assay: thrombin assay, hydrolysis of structure (11b) as proteolytic substrate. Particulars: for kcat/KM (thrombin): bovine thrombin, 37° C. It counts as biochemical. Here is the method:
(§1) Both the thrombin and Factor VII assays of this experiment were carried out at 37° C. using a Hitachi UV/Vis spectrophotometer (model U-3000). Structure (11b) was dissolved in deionized water. The concentration was determined from the absorbance at 342 nm. […] Initial velocities were calculated from the initial linear portion of the reaction progress curve. Kinetic parameters were determined by unweighted nonlinear least-squares fitting of the simple Michaelis-Menten equation to the experimental data using GraFit (Version 3.0, Erithacus Software Limited).
For the thrombin assay, experiments were performed in pH 8.4 Tris buffer (Tris, 0.05M; NaCl, 0.15M). 6.4 NIH units of bovine thrombin (from Sigma) were dissolved into 10 ml of the assay buffer to yield 10 nM thrombin solution. […] The first two minutes of the reactions were recorded for initial velocity determination.

In assay [2] the target is T2, human Factor VIIa (FVIIa) and human tissue factor (TF) (Homo sapiens, UniProt P08709).
T2 construct: human Factor VIIa (FVIIa)
T2 sequence (P08709 213-466 limits assumed): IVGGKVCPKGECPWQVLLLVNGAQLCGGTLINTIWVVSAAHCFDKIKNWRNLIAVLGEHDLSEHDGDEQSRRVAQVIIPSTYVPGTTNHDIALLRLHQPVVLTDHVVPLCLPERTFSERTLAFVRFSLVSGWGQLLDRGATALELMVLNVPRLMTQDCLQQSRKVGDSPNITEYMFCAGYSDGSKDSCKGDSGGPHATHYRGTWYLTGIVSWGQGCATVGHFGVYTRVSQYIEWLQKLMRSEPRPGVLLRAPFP
T2 sequence (P08709 61-212 partner limits assumed): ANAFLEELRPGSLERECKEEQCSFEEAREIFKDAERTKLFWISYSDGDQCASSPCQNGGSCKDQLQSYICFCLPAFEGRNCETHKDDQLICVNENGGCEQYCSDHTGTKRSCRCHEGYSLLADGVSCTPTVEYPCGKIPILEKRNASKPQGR
T2 sequence (P13726 33-251 partner limits assumed): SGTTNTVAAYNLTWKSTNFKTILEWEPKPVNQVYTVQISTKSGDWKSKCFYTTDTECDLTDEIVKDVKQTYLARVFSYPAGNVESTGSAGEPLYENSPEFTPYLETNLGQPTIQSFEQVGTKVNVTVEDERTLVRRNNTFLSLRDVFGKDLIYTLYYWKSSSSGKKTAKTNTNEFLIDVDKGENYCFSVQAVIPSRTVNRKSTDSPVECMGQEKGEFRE
As to the kind of experiment: Factor VII assay, hydrolysis of structure (11b) as proteolytic substrate. It counts as biochemical. Particulars: for kcat/KM (Factor VII): human FVIIa and TF, pH 8.0 Tris buffer, 37° C. Here is the method: as §1
For the Factor VII assay, pH 8.0 Tris buffer (0.05 M Tris, 5 mM CaCl2, 0.15 M NaCl, 0.1% TWEEN 20, 0.1% BSA) was used. 10 μl of 20 μM human Factor VIIa (FVIIa) and 22 μM of human tissue factor (TF) was brought to assay buffer to make 160 nM FVIIa and TF solutions, respectively. […] The initial 3 minutes reaction progress curves were recorded. […] The kcat/KM was, calculated from the slope and found to be 17,500 M^−1 s^−1.

The test system of assay [3] is control plasma. Kind of assay: prothrombin time (PT) in control plasma. The note with it: compared with PPACK. Here is the method: Then 200 μl of prewarmed (at 37° C. for ˜10 minutes) thromboplastin with calcium (from Sigma) was rapidly added into the plasma sample.
Assay [4] concerns aPTT and TT. Kind of assay: pharmacodynamic study in rats (aPTT and TT of plasma samples). It counts as in vivo, rat. Particulars: male Sprague Dawley rats, 4 mg/kg IV and 10 mg/kg PO. Here is the method:
Specifically, a pharmacodynamic and pharmacokinetic study of structure (20b) was conducted in male Sprague Dawley rats. […] Groups of rats (n=3 or 4) were sacrificed and exsanguinated at 0.25, 0.5, 1, 2, 4 and 8 hours following dosing. Efficacy parameters, aPTT and TT; were measured for each plasma sample.

Take `NC(N)=NCCCC(NC(=O)C1CCCN1C(=O)C(N)Cc1ccccc1)C(=O)Nc1ccc([N+](=O)[O-])cc1` (centres unmarked) [(D)FPR-PNA, reference compound]: the “kcat/KM (thrombin)” value in assay [1] is 2.2e+07 M⁻¹ s⁻¹. The “kcat/KM (Factor VII)” value in assay [2] was 12700 M⁻¹ s⁻¹.
Take `N=C(N)NCCC[C@H](NC(=O)[C@@H]1CCN2CC[C@@](N)(Cc3ccccc3)C(=O)N12)C(=O)Nc1ccc([N+](=O)[O-])cc1` [Structure (11b)]: the “kcat/KM (thrombin)” value in assay [1] was 1.67e+07 M⁻¹ s⁻¹. Further, the “Activity compared to the control (D)FPR-PNA, thrombin” value in assay [1] (ratio of kcat/KM to control) was 0.76. Further, in assay [2], the “kcat/KM (Factor VII)” value is on record as 17,500 M^−1 s^−1. In assay [2] (ratio of kcat/KM to control), the “Activity compared to the control (D)FPR-PNA, Factor VII” value is 1.38.
As for `N=C(N)NCCC[C@H](NC(=O)[C@@H]1CCN2CC[C@@](N)(Cc3ccccc3)C(=O)N12)C(=O)CCl` [Structure (13b)], the “time required to form clot (PT), in words” value in assay [3] is “comparable with PPACK”.
As for `N=C(N)NCCC[C@H](NC(=O)[C@@H]1CCN2CC[C@@](N)(Cc3ccccc3)C(=O)N12)C(=O)c1nc2ccccc2s1` [Structure (20b)], the “in vivo efficacy (aPTT and TT)” value in assay [4] is “in vivo efficacy”.
